Earlier results as cited in patent publication US20050065087A1, “Pharmaceutical compositions and methods comprising combinations of 2-alkylidene-19-nor-vitamin D derivatives and a bone morphogenetic protein” (Pfizer Inc., priority 2003, published 2005).

Legend:
[1] = tested on: male weanling rats on vitamin D-deficient diet; conditions: chronic 7 days, 130 and/or 260 pmol/day as tested
[2] = tested on: male weanling rats on vitamin D-deficient diet; conditions: for bone calcium mobilization (in words): chronic 7 days, 130 and 260 pmol/day
[3] = tested on: HL-60 cells; conditions: method of Ostrem et al.

SMILES | intestinal calcium transport (in words) [1] | serum calcium value (text sentence) ([2]; 'twice the dose ... at the 130 pmol dose' as printed, 7 days) [mg/100 ml] | inducing differentiation of HL-60 cells to the monocyte (in words) [3] | bone calcium mobilization (in words) [2] | bone calcium mobilization activity relative to the native hormone, 'possible' upper estimate ([2]; 130 pmol/day, chronic mode 7 days) | bone calcium mobilization activity relative to 1,25-(OH)2D3 (native hormone) ([2]; chronic mode 7 days, estimate in the text)
C=C1/C(=C\C=C2/CCC[C@]3(C)[C@@H]([C@H](C)CCCC(C)(C)O)CC[C@@H]23)C[C@@H](O)C[C@@H]1O [1,25-(OH)2D3, 1,25-dihydroxyvitamin D3, reference compound] | expected elevation | 13.8 | – | – | – | –
C=C1[C@H](O)CC(=C/C=C2\CCC[C@]3(C)[C@@H]([C@H](C)CCCC(C)(C)O)CC[C@@H]23)C[C@H]1O [2-Methylene-19-Nor-1,25-(OH)2D3, 1α,25-dihydroxy-2-methylene-19-nor-vitamin D3] | no intestinal calcium transport activity | – | activity similar to 1,25-(OH)2D3 | extremely strong bone calcium mobilization | – | –
C=C1[C@H](O)CC(=C/C=C2\CCC[C@]3(C)[C@@H]([C@@H](C)CCCC(C)(C)O)CC[C@@H]23)C[C@H]1O [2-Methylene-19-Nor-20S-1,25-(OH)2D3, (20S)-1α,25-dihydroxy-2-methylene-19-nor-vitamin D3] | no significant change | – | extremely potent | most potent compound tested | 100-1,000 times | at least 10 times
